Article PMC2248166, “Quantitative peptide binding motifs for 19 human and mouse MHC class I molecules derived using positional scanning combinatorial peptide libraries” (Immunome Research, 2008)

Target: HLA A*6802 (Homo sapiens, UniProt P04439, A269V/D140Y/D185E/E176V/E277Q/E87N/F33Y/G231S/I121R/I166T/I218V/L180W/L300P/L318F/N151K/P208A/P217A/Q86R/R138H/R169H/S129P/T345S/V36M)
Test: not given
Assay type: binding

Sequence	Normalized average relative binding affinity(ARB)
XXXXNXXXX [3064.0092]	0.30
XXXXPXXXX [3064.0093]	0.16
XXXXQXXXX [3064.0094]	0.077
XXXXRXXXX [3064.0095]	0.19
XXXXSXXXX [3064.0096]	0.34
XXXXTXXXX [3064.0097]	0.044

Target: HLA B*0801 (Homo sapiens, UniProt P01889, A93T/A95T/D138N/E176V/E187T/K202T/Q94N/R180D/S35A/V36M/Y33D/Y91F)
Test: biochemical
Assay type: binding

Sequence	Normalized average relative binding affinity(ARB)
XXXXNXXXX [3064.0092]	0.037
XXXXPXXXX [3064.0093]	0.011
XXXXQXXXX [3064.0094]	0.037
XXXXRXXXX [3064.0095]	1.0
XXXXSXXXX [3064.0096]	0.065
XXXXTXXXX [3064.0097]	0.011

Target: HLA B*3501 (Homo sapiens, UniProt P01889, A329T/A93T/A95T/C349S/D201E/D98Y/E176V/E187L/E204Q/E69T/I218V/K202T/L119I/Q94N/R155S/R180L/S121R/S35A/S48A/T118I/V127L/V306I/V36M/Y140S/Y91F)
Test: not given
Assay type: binding

Sequence	Normalized average relative binding affinity(ARB)
XXXXNXXXX [3064.0092]	1.0
XXXXPXXXX [3064.0093]	0.37
XXXXQXXXX [3064.0094]	0.28
XXXXRXXXX [3064.0095]	0.23
XXXXSXXXX [3064.0096]	0.27
XXXXTXXXX [3064.0097]	0.21

Target: HLA A*3201 (Homo sapiens, UniProt P04439, A270S/D101S/D185E/E176V/E277Q/F133L/G103R/G107R/G231S/H175R/I121M/I218V/I322F/K168Q/L105A/L300P/L318F/M331R/P208A/P217A/Q94H/R106L/R138Q/S129P/T104I/T323A/T345S/V100E/V321M/V358M)
Test: biochemical
Assay type: binding

Sequence	Normalized average relative binding affinity(ARB)
XXXXNXXXX [3064.0092]	0.16
XXXXPXXXX [3064.0093]	0.16
XXXXQXXXX [3064.0094]	0.38
XXXXRXXXX [3064.0095]	0.27
XXXXSXXXX [3064.0096]	0.20
XXXXTXXXX [3064.0097]	0.062

Target: H-2 D^d (Mus musculus, UniProt P01900)
Sequence (P01900 whole entry, looked up): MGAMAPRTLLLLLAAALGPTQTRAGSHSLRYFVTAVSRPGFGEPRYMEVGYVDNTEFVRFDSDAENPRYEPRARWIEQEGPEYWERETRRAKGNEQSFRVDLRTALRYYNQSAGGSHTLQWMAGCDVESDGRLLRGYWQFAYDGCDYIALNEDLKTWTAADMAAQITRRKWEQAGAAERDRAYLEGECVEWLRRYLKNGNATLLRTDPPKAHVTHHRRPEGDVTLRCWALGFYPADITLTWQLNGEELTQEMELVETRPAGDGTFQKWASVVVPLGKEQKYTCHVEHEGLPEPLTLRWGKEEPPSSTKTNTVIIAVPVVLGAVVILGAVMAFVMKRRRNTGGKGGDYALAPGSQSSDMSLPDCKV
Test: not given
Assay type: binding

Sequence	Normalized average relative binding affinity(ARB)
XXXXNXXXX [3064.0092]	0.19
XXXXPXXXX [3064.0093]	0.023
XXXXQXXXX [3064.0094]	0.15
XXXXRXXXX [3064.0095]	1.0
XXXXSXXXX [3064.0096]	0.21
XXXXTXXXX [3064.0097]	0.18

Target: H-2 D^b (Mus musculus, UniProt P01899)
Sequence (P01887 21-119): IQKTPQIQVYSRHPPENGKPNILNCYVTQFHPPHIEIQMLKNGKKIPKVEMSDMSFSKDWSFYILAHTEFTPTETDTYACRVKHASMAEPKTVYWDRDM
Sequence (P01899 25-362): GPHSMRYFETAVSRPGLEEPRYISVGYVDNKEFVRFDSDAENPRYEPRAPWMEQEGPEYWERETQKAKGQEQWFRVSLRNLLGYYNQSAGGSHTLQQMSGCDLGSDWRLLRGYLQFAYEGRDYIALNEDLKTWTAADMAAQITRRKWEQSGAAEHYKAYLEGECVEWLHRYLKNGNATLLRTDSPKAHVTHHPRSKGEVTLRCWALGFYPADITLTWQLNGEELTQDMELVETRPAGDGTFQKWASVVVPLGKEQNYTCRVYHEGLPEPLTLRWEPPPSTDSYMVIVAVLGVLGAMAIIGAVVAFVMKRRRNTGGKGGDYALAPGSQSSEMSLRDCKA
Test: not given
Assay type: binding

Sequence	Normalized average relative binding affinity(ARB)
XXXXNXXXX [3064.0092]	1.0
XXXXPXXXX [3064.0093]	0.038
XXXXQXXXX [3064.0094]	0.023
XXXXRXXXX [3064.0095]	0.020
XXXXSXXXX [3064.0096]	0.079
XXXXTXXXX [3064.0097]	0.018

Target: HLA B*5801 (Homo sapiens, UniProt P01889, A329T/C349S/D201E/D98Y/E176V/E187L/E204Q/E69T/G107R/I218V/I90N/K202T/L105A/L119I/N104I/N87E/Q89R/Q94S/R106L/R155S/R180L/R86G/S101N/S121R/S35A/S48A/T118I/V127L/V306I/V36M/Y140S/Y91M)
Test: not given
Assay type: binding

Sequence	Normalized average relative binding affinity(ARB)
XXXXNXXXX [3064.0092]	0.13
XXXXPXXXX [3064.0093]	0.19
XXXXQXXXX [3064.0094]	0.19
XXXXRXXXX [3064.0095]	0.15
XXXXSXXXX [3064.0096]	0.31
XXXXTXXXX [3064.0097]	0.33

Target: HLA B*5401 (Homo sapiens, UniProt P01889, A329T/C349S/D138N/D201E/E176V/E187T/E204Q/E69G/I76V/K202T/L119W/R155S/R180L/S121T/S35A/S48A/V127L/V306I/V36M/Y140L)
Test: not given
Assay type: binding

Sequence	Normalized average relative binding affinity(ARB)
XXXXNXXXX [3064.0092]	0.34
XXXXPXXXX [3064.0093]	0.51
XXXXQXXXX [3064.0094]	0.40
XXXXRXXXX [3064.0095]	0.21
XXXXSXXXX [3064.0096]	0.18
XXXXTXXXX [3064.0097]	0.085

Target: HLA B*1501 (Homo sapiens, UniProt P01889, A329T/A93T/A95T/C349S/D201E/D98Y/E187L/E204Q/E69M/E70A/K202T/N87E/Q94N/R155S/R180W/S121R/S35A/S48A/V306I/V36M/Y140S/Y91S)
Test: biochemical
Assay type: binding

Sequence	Normalized average relative binding affinity(ARB)
XXXXNXXXX [3064.0092]	0.56
XXXXPXXXX [3064.0093]	0.89
XXXXQXXXX [3064.0094]	1.0
XXXXRXXXX [3064.0095]	0.64
XXXXSXXXX [3064.0096]	0.71
XXXXTXXXX [3064.0097]	0.62

Target: H-2 K^k (Mus musculus, UniProt P04223)
Sequence (P01887 21-119): as the sequence (P01887 21-119) above
Sequence (P04223 22-369): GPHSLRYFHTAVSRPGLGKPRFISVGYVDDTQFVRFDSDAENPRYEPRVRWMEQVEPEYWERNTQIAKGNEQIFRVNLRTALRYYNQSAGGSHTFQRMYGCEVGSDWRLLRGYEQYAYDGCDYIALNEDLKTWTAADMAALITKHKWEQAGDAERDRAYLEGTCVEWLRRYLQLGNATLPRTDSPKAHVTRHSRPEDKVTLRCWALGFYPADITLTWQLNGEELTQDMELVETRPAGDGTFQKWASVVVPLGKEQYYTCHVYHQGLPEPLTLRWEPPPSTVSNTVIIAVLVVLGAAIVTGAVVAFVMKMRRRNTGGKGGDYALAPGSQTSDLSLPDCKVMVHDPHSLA
Test: not given
Assay type: binding

Sequence	Normalized average relative binding affinity(ARB)
XXXXNXXXX [3064.0092]	0.090
XXXXPXXXX [3064.0093]	0.072
XXXXQXXXX [3064.0094]	0.099
XXXXRXXXX [3064.0095]	0.072
XXXXSXXXX [3064.0096]	0.18
XXXXTXXXX [3064.0097]	0.16

Target: HLA A*3001 (Homo sapiens, UniProt P04439, D140H/D185E/E176W/F33S/G80R/H175R/K168Q/R138E/R41S)
Test: biochemical
Assay type: binding

Sequence	Normalized average relative binding affinity(ARB)
XXXXNXXXX [3064.0092]	0.12
XXXXPXXXX [3064.0093]	0.53
XXXXQXXXX [3064.0094]	0.20
XXXXRXXXX [3064.0095]	0.80
XXXXSXXXX [3064.0096]	1.0
XXXXTXXXX [3064.0097]	0.18

Target: HLA B*5301 (Homo sapiens, UniProt P01889, A329T/A93T/A95T/C349S/D201E/D98Y/E176V/E187L/E204Q/E69T/G107R/I218V/K202T/L105A/L119I/N104I/Q94N/R106L/R155S/R180L/S101N/S121R/S35A/S48A/T118I/V127L/V306I/V36M/Y140S/Y91F)
Test: not given
Assay type: binding

Sequence	Normalized average relative binding affinity(ARB)
XXXXNXXXX [3064.0092]	0.17
XXXXPXXXX [3064.0093]	0.14
XXXXQXXXX [3064.0094]	0.12
XXXXRXXXX [3064.0095]	0.11
XXXXSXXXX [3064.0096]	0.16
XXXXTXXXX [3064.0097]	0.11

Target: HLA B*5802 (Homo sapiens, UniProt P01889, A329T/C349S/D201E/D98Y/E176V/E187L/E204Q/E69T/G107R/I218V/I90N/K202T/L105A/N104I/N87E/Q89R/Q94S/R106L/R155S/R180L/R86G/S101N/S121W/S35A/S48A/V127L/V306I/V36M/Y140S/Y91M)
Test: not given
Assay type: binding

Sequence	Normalized average relative binding affinity(ARB)
XXXXNXXXX [3064.0092]	0.31
XXXXPXXXX [3064.0093]	0.075
XXXXQXXXX [3064.0094]	0.063
XXXXRXXXX [3064.0095]	0.20
XXXXSXXXX [3064.0096]	0.063
XXXXTXXXX [3064.0097]	0.16

Target: HLA B*5101 (Homo sapiens, UniProt P01889, A329T/A93T/A95T/C349S/D138N/D201E/D98Y/E187L/E204Q/E69T/G107R/I218V/K202T/L105A/L119W/N104I/Q94N/R106L/R155S/R180L/S101N/S121T/S35A/S48A/V306I/V36M/Y195H/Y91F)
Test: not given
Assay type: binding

Sequence	Normalized average relative binding affinity(ARB)
XXXXNXXXX [3064.0092]	0.40
XXXXPXXXX [3064.0093]	0.50
XXXXQXXXX [3064.0094]	0.29
XXXXRXXXX [3064.0095]	0.49
XXXXSXXXX [3064.0096]	0.35
XXXXTXXXX [3064.0097]	0.51

Target: HLA B*1503 (Homo sapiens, UniProt P01889, A329T/A93T/A95T/C349S/D201E/D98Y/E187L/E204Q/K202T/N87E/Q94N/R155S/R180L/S121R/S35A/V306I/V36M/Y140S/Y91S)
Test: biochemical
Assay type: binding

Sequence	Normalized average relative binding affinity(ARB)
XXXXNXXXX [3064.0092]	0.26
XXXXPXXXX [3064.0093]	0.46
XXXXQXXXX [3064.0094]	0.20
XXXXRXXXX [3064.0095]	0.28
XXXXSXXXX [3064.0096]	0.47
XXXXTXXXX [3064.0097]	0.43

Target: H-2 K^d (Mus musculus, UniProt P01902)
Sequence (P01887 21-119): as the sequence (P01887 21-119) above
Sequence (P01902 22-368): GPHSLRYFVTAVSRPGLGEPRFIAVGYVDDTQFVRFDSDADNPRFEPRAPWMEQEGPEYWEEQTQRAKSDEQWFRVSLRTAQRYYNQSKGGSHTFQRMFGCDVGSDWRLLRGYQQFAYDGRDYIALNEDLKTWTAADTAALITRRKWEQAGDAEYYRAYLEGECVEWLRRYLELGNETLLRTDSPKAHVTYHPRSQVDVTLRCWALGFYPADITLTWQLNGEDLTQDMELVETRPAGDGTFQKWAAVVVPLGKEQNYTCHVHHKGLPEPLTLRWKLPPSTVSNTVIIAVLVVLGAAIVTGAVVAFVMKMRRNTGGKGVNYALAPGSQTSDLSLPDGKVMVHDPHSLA
Test: not given
Assay type: binding

Sequence	Normalized average relative binding affinity(ARB)
XXXXNXXXX [3064.0092]	0.21
XXXXPXXXX [3064.0093]	0.094
XXXXQXXXX [3064.0094]	0.15
XXXXRXXXX [3064.0095]	0.023
XXXXSXXXX [3064.0096]	1.0
XXXXTXXXX [3064.0097]	0.42
